The record followed here is patent US10206394B2, “Herbicidal compounds” (Syngenta Participations AG, priority 2014, dated 2019).

Common to all, as to assay: Glasshouse assay for herbicidal activity (pre- and post-emergence), percentage phytotoxicity
Holding throughout (format): in vivo

In test [1] the test system is Alopecurus myosuroides (ALOMY). The following applies: Alopecurus myosuroides. Here is the method: (§1) Test—Glasshouse Assay for Herbicidal Activity
(§2) Seeds of a variety of monocotyledonous and dicotyledonous test plants are sown in standard soil in pots. The plants are cultivated for one day (for pre-emergence (PRE)) or for about 12 days (for post-emergence (POST)) under controlled conditions in a glasshouse (warm climate species at 24/18° C., cool climate species at 20/16° C., both at day/night; 16 hours light; 65% humidity).
(§3) The test plants are then grown on, in a glasshouse (greenhouse) under controlled conditions (warm climate species at 24/18° C., cool climate species at 20/16° C., both at day/night; 16 hours light; 65% humidity) and are watered twice daily. 15 days after application of the test herbicide (15 DAA) (for post-emergence), and 20 days after application of the test herbicide (20 DAA) (for pre-emergence), the test plants are evaluated visually, and an assessed percentage phytotoxicity score is given for each herbicidal application on each plant species (with 100%=total damage to plant; 0%=no damage to plant).
(§4) The plant species tested are as follows: Alopecurus myosuroides (ALOMY), Avena fatua (AVEFA), Lolium perenne (LOLPE), Echinochloa crus-galli (ECHCG).

For test [2], the system named is Avena fatua (AVEFA). The settings on record: Avena fatua. The procedure: as §1, §2, §3, §4
The subject of test [3] is Echinochloa crus-galli (ECHCG). The settings on record: Echinochloa crus-galli. The procedure:
as §1, §2, §3, §4

The test system of test [4] is Lolium perenne (LOLPE). The following applies: Lolium perenne. Here is the method:
as §1, §2, §3, §4

[5] abbreviates: post-emergence, 360 h, Rate 250 g/ha, post-emergence, visual assessment 15 DAA, 100%=total damage, 0%=no damage, read-out: Post-emergence herbicidal activity (percentage phytotoxicity) ALOMY POST.
Setting [6] is: pre-emergence, 480 h, Rate 250 g/ha, pre-emergence, visual assessment 20 DAA, 100%=total damage, 0%=no damage, read-out: Pre-emergence herbicidal activity (percentage phytotoxicity) ALOMY PRE.
[7] abbreviates: post-emergence, 360 h, Rate 250 g/ha, post-emergence, visual assessment 15 DAA, 100%=total damage, 0%=no damage, read-out: Post-emergence herbicidal activity (percentage phytotoxicity) AVEFA POST.
The mark [8] stands for this setting: pre-emergence, 480 h, Rate 250 g/ha, pre-emergence, visual assessment 20 DAA, 100%=total damage, 0%=no damage, read-out: Pre-emergence herbicidal activity (percentage phytotoxicity) AVEFA PRE.
Where [9] appears, read: post-emergence, 360 h, Rate 250 g/ha, post-emergence, visual assessment 15 DAA, 100%=total damage, 0%=no damage, read-out: Post-emergence herbicidal activity (percentage phytotoxicity) ECHCG POST.
The mark [10] stands for this setting: pre-emergence, 480 h, Rate 250 g/ha, pre-emergence, visual assessment 20 DAA, 100%=total damage, 0%=no damage, read-out: Pre-emergence herbicidal activity (percentage phytotoxicity) ECHCG PRE.
Setting [11] is: post-emergence, 360 h, Rate 250 g/ha, post-emergence, visual assessment 15 DAA, 100%=total damage, 0%=no damage, read-out: Post-emergence herbicidal activity (percentage phytotoxicity) LOLPE POST.
[12] abbreviates: pre-emergence, 480 h, Rate 250 g/ha, pre-emergence, visual assessment 20 DAA, 100%=total damage, 0%=no damage, read-out: Pre-emergence herbicidal activity (percentage phytotoxicity) LOLPE PRE.

The structures appear in SMILES notation. Like-named read-outs stand apart in the source and are kept apart here.

Turning to `Cc1cc(-c2ccc(F)cn2)cc(C)c1C1C(=O)CC(CC(=O)N(C)C(C)(C)C)C1=O` (stereo not drawn) [Compound B393], the pest or weed control at 250 g/ha in test [1] (setting [5]) was 90%; in test [1] (setting [6]), 100%; in test [2] (setting [7]) it was 100%; in test [2] (setting [8]), 90%; in test [3] (setting [9]), 100%; in test [3] (setting [10]), 100%. Besides, the pest or weed control at 250 g/ha in test [4] (setting [11]) was 90%; in test [4] (setting [12]), 100%.

For `CCCNC(=O)CC1CC(=O)C(c2c(C)cc(-n3cc(Cl)cn3)cc2C)C1=O` (stereo not drawn) [Compound B314, 2-[3-[4-(4-chloropyrazol-1-yl)-2,6-dimethyl-phenyl]-2,4-dioxo-cyclopentyl]-N-propyl-acetamide], the pest or weed control at 250 g/ha in test [1] (post-emergence, 360 h, POST-emergence, rate 250 g/ha, visual score 15 DAA (100%=total damage, 0%=no damage), read-out: Post-emergence herbicidal activity (percentage phytotoxicity) ALOMY POST) was found to be 100%; in test [1] (pre-emergence, 480 h, PRE-emergence, rate 250 g/ha, visual score 20 DAA (100%=total damage, 0%=no damage), read-out: Pre-emergence herbicidal activity (percentage phytotoxicity) ALOMY PRE), 100%; in test [2] (post-emergence, 360 h, POST-emergence, rate 250 g/ha, visual score 15 DAA (100%=total damage, 0%=no damage), read-out: Post-emergence herbicidal activity (percentage phytotoxicity) AVEFA POST) it was 100%; in test [2] (pre-emergence, 480 h, PRE-emergence, rate 250 g/ha, visual score 20 DAA (100%=total damage, 0%=no damage), read-out: Pre-emergence herbicidal activity (percentage phytotoxicity) AVEFA PRE) it was 90%; in test [3] (post-emergence, 360 h, POST-emergence, rate 250 g/ha, visual score 15 DAA (100%=total damage, 0%=no damage), read-out: Post-emergence herbicidal activity (percentage phytotoxicity) ECHCG POST), 80%; in test [3] (pre-emergence, 480 h, PRE-emergence, rate 250 g/ha, visual score 20 DAA (100%=total damage, 0%=no damage), read-out: Pre-emergence herbicidal activity (percentage phytotoxicity) ECHCG PRE) it was 100%. Moreover, the pest or weed control at 250 g/ha in test [4] (post-emergence, 360 h, POST-emergence, rate 250 g/ha, visual score 15 DAA (100%=total damage, 0%=no damage), read-out: Post-emergence herbicidal activity (percentage phytotoxicity) LOLPE POST) stood at 90%; in test [4] (pre-emergence, 480 h, PRE-emergence, rate 250 g/ha, visual score 20 DAA (100%=total damage, 0%=no damage), read-out: Pre-emergence herbicidal activity (percentage phytotoxicity) LOLPE PRE), 90%.

`CC#Cc1cc(C)c(C2C(=O)CC(CC(=O)NC(C)(C)CC)C2=O)c(C)c1` (stereo not drawn) [Compound A60]: the pest or weed control at 250 g/ha in test [1] (post-emergence, 360 h, Rate 250 g/ha, post-emergence, assessed visually 15 DAA, 100%=total damage, 0%=no damage, read-out: Post-emergence herbicidal activity (percentage phytotoxicity) ALOMY POST) came out at 100%; in test [1] (pre-emergence, 480 h, Rate 250 g/ha, pre-emergence, assessed visually 20 DAA, 100%=total damage, 0%=no damage, read-out: Pre-emergence herbicidal activity (percentage phytotoxicity) ALOMY PRE), 100%; in test [2] (post-emergence, 360 h, Rate 250 g/ha, post-emergence, assessed visually 15 DAA, 100%=total damage, 0%=no damage, read-out: Post-emergence herbicidal activity (percentage phytotoxicity) AVEFA POST), 100%; in test [2] (pre-emergence, 480 h, Rate 250 g/ha, pre-emergence, assessed visually 20 DAA, 100%=total damage, 0%=no damage, read-out: Pre-emergence herbicidal activity (percentage phytotoxicity) AVEFA PRE), 100%; in test [3] (post-emergence, 360 h, Rate 250 g/ha, post-emergence, assessed visually 15 DAA, 100%=total damage, 0%=no damage, read-out: Post-emergence herbicidal activity (percentage phytotoxicity) ECHCG POST), 100%; in test [3] (pre-emergence, 480 h, Rate 250 g/ha, pre-emergence, assessed visually 20 DAA, 100%=total damage, 0%=no damage, read-out: Pre-emergence herbicidal activity (percentage phytotoxicity) ECHCG PRE), 100%. Further, the pest or weed control at 250 g/ha amounted to 90% in test [4] (post-emergence, 360 h, Rate 250 g/ha, post-emergence, assessed visually 15 DAA, 100%=total damage, 0%=no damage, read-out: Post-emergence herbicidal activity (percentage phytotoxicity) LOLPE POST) and 100% in test [4] (pre-emergence, 480 h, Rate 250 g/ha, pre-emergence, assessed visually 20 DAA, 100%=total damage, 0%=no damage, read-out: Pre-emergence herbicidal activity (percentage phytotoxicity) LOLPE PRE).

For the molecule `Cc1cc(-c2ncc(Cl)cc2F)cc(C)c1C1C(=O)CC(CC(=O)NCC(C)C)C1=O` (stereo not drawn) [Compound B124], the pest or weed control at 250 g/ha worked out at 100% in test [1] (post-emergence, 360 h, 250 g/ha, post-emergence, 15 DAA, visual assessment (100%=total damage, 0%=no damage), read-out: Post-emergence herbicidal activity (percentage phytotoxicity) ALOMY POST); 90% in test [1] (pre-emergence, 480 h, 250 g/ha, pre-emergence, 20 DAA, visual assessment (100%=total damage, 0%=no damage), read-out: Pre-emergence herbicidal activity (percentage phytotoxicity) ALOMY PRE); 100% in test [2] (post-emergence, 360 h, 250 g/ha, post-emergence, 15 DAA, visual assessment (100%=total damage, 0%=no damage), read-out: Post-emergence herbicidal activity (percentage phytotoxicity) AVEFA POST); 100% in test [2] (pre-emergence, 480 h, 250 g/ha, pre-emergence, 20 DAA, visual assessment (100%=total damage, 0%=no damage), read-out: Pre-emergence herbicidal activity (percentage phytotoxicity) AVEFA PRE); 100% in test [3] (post-emergence, 360 h, 250 g/ha, post-emergence, 15 DAA, visual assessment (100%=total damage, 0%=no damage), read-out: Post-emergence herbicidal activity (percentage phytotoxicity) ECHCG POST); 100% in test [3] (pre-emergence, 480 h, 250 g/ha, pre-emergence, 20 DAA, visual assessment (100%=total damage, 0%=no damage), read-out: Pre-emergence herbicidal activity (percentage phytotoxicity) ECHCG PRE). Besides, the pest or weed control at 250 g/ha in test [4] (post-emergence, 360 h, 250 g/ha, post-emergence, 15 DAA, visual assessment (100%=total damage, 0%=no damage), read-out: Post-emergence herbicidal activity (percentage phytotoxicity) LOLPE POST) stood at 100%; in test [4] (pre-emergence, 480 h, 250 g/ha, pre-emergence, 20 DAA, visual assessment (100%=total damage, 0%=no damage), read-out: Pre-emergence herbicidal activity (percentage phytotoxicity) LOLPE PRE), 100%.

For the molecule `CCCN(CC)C(=O)CC1CC(=O)C(c2c(C)cc(C)cc2C)C1=O` (stereo not drawn) [Compound A171], the pest or weed control at 250 g/ha in test [1] (post-emergence, 360 h, post-emergence, 250 g/ha, 15 DAA, visual score (100%=total damage; 0%=no damage), read-out: ALOMY POST herbicidal activity (percentage phytotoxicity)) is 70%; in test [1] (pre-emergence, 480 h, pre-emergence, 250 g/ha, 20 DAA, visual score (100%=total damage; 0%=no damage), read-out: ALOMY PRE herbicidal activity (percentage phytotoxicity)), 60%; in test [2] (post-emergence, 360 h, post-emergence, 250 g/ha, 15 DAA, visual score (100%=total damage; 0%=no damage), read-out: AVEFA POST herbicidal activity (percentage phytotoxicity)), 70%; in test [2] (pre-emergence, 480 h, pre-emergence, 250 g/ha, 20 DAA, visual score (100%=total damage; 0%=no damage), read-out: AVEFA PRE herbicidal activity (percentage phytotoxicity)), 20%; in test [3] (post-emergence, 360 h, post-emergence, 250 g/ha, 15 DAA, visual score (100%=total damage; 0%=no damage), read-out: ECHCG POST herbicidal activity (percentage phytotoxicity)), 70%; in test [3] (pre-emergence, 480 h, pre-emergence, 250 g/ha, 20 DAA, visual score (100%=total damage; 0%=no damage), read-out: ECHCG PRE herbicidal activity (percentage phytotoxicity)), 80%. Also, the pest or weed control at 250 g/ha was 80% in test [4] (post-emergence, 360 h, post-emergence, 250 g/ha, 15 DAA, visual score (100%=total damage; 0%=no damage), read-out: LOLPE POST herbicidal activity (percentage phytotoxicity)) and 70% in test [4] (pre-emergence, 480 h, pre-emergence, 250 g/ha, 20 DAA, visual score (100%=total damage; 0%=no damage), read-out: LOLPE PRE herbicidal activity (percentage phytotoxicity)).

Take `C=CC(C)NC(=O)CC1CC(=O)C(c2c(C)cc(-c3ccc(Cl)cn3)cc2C)C1=O` (stereo not drawn) [Compound B365]: the pest or weed control at 250 g/ha was 90% in test [1] (setting [5]); 100% in test [1] (setting [6]); 90% in test [2] (setting [7]); 90% in test [2] (setting [8]); 100% in test [3] (setting [9]); 100% in test [3] (setting [10]). Also, the pest or weed control at 250 g/ha in test [4] (setting [11]) stood at 90%; in test [4] (setting [12]), 100%.
